Reference: patent US6875760B2 (Novo Nordisk A/S, priority 1999, dated 2005)

Molecular target: T1, human glucagon receptor (Homo sapiens, UniProt P47871)
T1 construct: expressed in transfected cells; host or cells: BHK (baby hamster kidney) cells
Assay: Glucagon Binding Assay (III)
Conditions: BHK cell membranes, WGA SPA beads, 125I-glucagon; read-out: Glu Bd Assay (III) IC50
Outline: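 Membranes from BHK cells transfected with the human receptor, prepared at 4 °C, were used in a WGA-bead scintillation proximity binding format. Plates were shaken for 4 hours, left to settle 8–48 hours and then counted. Non-specific binding was defined with 500 nM glucagon.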

T1 sequence (P47871 26-477): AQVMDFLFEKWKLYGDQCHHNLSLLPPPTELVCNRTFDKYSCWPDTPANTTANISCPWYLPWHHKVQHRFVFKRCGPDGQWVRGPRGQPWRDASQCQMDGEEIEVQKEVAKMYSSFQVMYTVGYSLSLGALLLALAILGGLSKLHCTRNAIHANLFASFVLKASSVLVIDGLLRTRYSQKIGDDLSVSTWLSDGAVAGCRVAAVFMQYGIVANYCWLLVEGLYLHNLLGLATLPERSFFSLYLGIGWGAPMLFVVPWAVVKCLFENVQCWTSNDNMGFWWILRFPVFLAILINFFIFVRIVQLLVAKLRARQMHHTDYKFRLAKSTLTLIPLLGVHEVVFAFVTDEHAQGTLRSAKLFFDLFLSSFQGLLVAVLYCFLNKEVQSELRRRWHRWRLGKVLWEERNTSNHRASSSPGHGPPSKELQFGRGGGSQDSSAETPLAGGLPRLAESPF

| IC50 | Compound |
| --- | --- |
| 8 nM | O=C(Nc1nn[nH]n1)c1ccc(CN(C(=O)Nc2ccc(OC(F)(F)F)c(-c3nc4ccccc4o3)c2)c2ccc(C3CCCCC3)cc2)cc1 [Example 360, 4-[3-(3-Benzoxazol-2-yl-4-trifluoromethoxyphenyl)-1-(4-cyclohexylphenyl)ureidomethyl]-N-(2H-tetrazol-5-yl)benzamide] |
| 55 nM | Cc1ccc(NC(=O)N(Cc2ccc(C(=O)Nc3nn[nH]n3)cc2)c2ccc(C3CCCCC3)cc2)cc1S(C)(=O)=O [Example 305, 4-[1-(4-Cyclohexylphenyl)-3-(3-methylsulfonyl-4-methylphenyl)ureidomethyl]-N-(2H-tetrazol-5-yl)benzamide] |
| 105 nM | CC(C)(C)c1ccc(N(Cc2ccc(C(=O)Nc3nn[nH]n3)cc2)C(=O)Nc2nc3ccc(OC(F)(F)F)cc3s2)cc1 [Example 615, 4-[1-(4-tert-Butylphenyl)-3-(6-trifluoromethoxy-benzothiazol-2-yl)ureidomethyl]-N-(2H-tetra-5-yl)benzamide] |
| 144 nM | O=C(Nc1nn[nH]n1)c1ccc(CN(C(=O)Cc2cccc(OC(F)(F)F)c2)c2ccc(C3CCCCC3)cc2)cc1 [Example 492, 4-({(4-Cyclohexylphenyl)-[2-(3-trifluoromethoxyphenyl)acetyl]amino}methyl)-N-(2H-tetrazol-5-yl)benzamide] |
| 673 nM | CC(C)(C)C1CCC(N(Cc2ccc(C(=O)NCCC(=O)O)cc2)C(=O)Nc2ccc(F)c(F)c2)CC1 (stereo not shown) [Example 72, 3-{4-[1-(4-tert-Butylcyclohexyl)-3-(3,4-difluorophenyl)ureidomethyl]benzoylamino}propionic acid] |
| 410 nM | CC(C)(C)C1CCC(N(Cc2ccc(C(=O)NCCC(=O)O)cc2)NC(=O)c2cc(C(F)(F)F)cc(C(F)(F)F)c2)CC1 (stereo not shown) [Example 428, 3-{4-[N′-(3,5-Bis(trifluoromethyl)benzoyl)-N-(4-tert-butylcyclohexyl)hydrazinomethyl]benzoylamino}propionic acid] |
| 2200 nM | COc1ccc(NC(=O)N(Cc2ccc(C(=O)NCCC(=O)O)cc2)C2CCC(C(C)(C)C)CC2)cc1 (stereo not shown) [Example 31, 3-{4-[1-(4-tert-Butylcyclohexyl)-3-(4-methoxyphenyl)ureidomethyl]benzoyl}aminopropionic acid] |
| 207 nM | O=C(O)CCNC(=O)c1ccc(CN(C(=O)Nc2ccc(OC(F)(F)F)cc2)c2ccc(C(F)(F)F)cc2)cc1 [Example 437, 3-{4-[3-(4-Trifluoromethoxyphenyl)-1-(4-trifluoromethylphenyl)ureidomethyl]benzoylamino}propionic acid] |
| 383 nM | CC(C)c1ccc(NC(=O)N(CCc2ccc(Cl)cc2)Cc2ccc(C(=O)NCCC(=O)O)cc2)cc1 [Example 52, 3-{4-[1-[2-(4-Chlorophenyl)ethyl]-3-(4-isopropylphenyl)ureidomethyl]benzoylamino}propionic acid] |
| 183 nM | CC1C(N(Cc2ccc(C(=O)NCCC(=O)O)cc2)C(=O)Nc2ccc(OC(F)(F)F)cc2)CC2CC1C2(C)C (stereo not shown) [Example 65, 3-{4-[3-(4-Trifluoromethoxyphenyl)-1-(2,6,6-trimethylbicyclo[3.1.1]hept-3-yl)ureidomethyl]benzoylamino}propionic acid] |
| 39 nM | CC(C)Cc1ccc(NC(=O)N(Cc2ccc(C(=O)NCCC(=O)O)cc2)C2CCC(C(C)(C)C)CC2)cc1 (stereo not shown) [Example 62, 3-{4-[1-(4-tert-Butylcyclohexyl)-3-(4-isobutylphenyl)ureidomethyl]benzoylamino}propionic acid] |

More lines, now with the values behind:

| Compound | IC50 |
| --- | --- |
| CC(C)(C)C1CCC(N(Cc2ccc(C(=O)Nc3nn[nH]n3)cc2)C(=O)c2cc(-c3ccc(Cl)cc3)cs2)CC1 (stereo not shown) [Example 564, 4-(4-Chlorophenyl)thiophene-2-carboxylic acid (4-tert-butylcyclohexyl)-[4-(2H-tetrazol-5-ylcarbamoyl)benzyl]amide] | 98 nM |
| CC(C)(C)C1CCC(N(Cc2ccc(C(=O)Nc3nn[nH]n3)cc2)C(=O)Cc2c(Cl)cccc2Cl)CC1 (stereo not shown) [Example 539, 4-({(4-tert-Butylcyclohexyl)-[2-(2,6-dichlorophenyl)acetyl]amino}methyl)-N-(2H-tetrazol-5-yl)benzamide] | 386 nM |
| CCCCC(CC)CN(Cc1ccc(C(=O)NCCC(=O)O)cc1)C(=O)Nc1ccc(C(C)C)cc1 (stereo not shown) [Example 43, 3-{4-[1-(2-Ethylhexyl)-3-(4-isopropylphenyl)ureidomethyl]benzoylamino}propionic acid] | 1110 nM |
| CCN(CCC(=O)O)C(=O)c1ccc(CN(C(=O)Nc2ccc(OC(F)(F)F)cc2)C2CCC(C(C)(C)C)CC2)cc1 (stereo not shown) [Example 91, 3-({4-[1-(4-tert-Butylcyclohexyl)-3-(4-trifluoromethoxyphenyl)ureidomethyl]benzoyl}ethylamino)propionic acid] | 2800 nM |
| CC(C)(C)C1CCC(N(Cc2ccc(C(=O)Nc3nn[nH]n3)cc2)C(=O)c2cc3cc(OC(F)(F)F)ccc3[nH]2)CC1 (stereo not shown) [Example 557, 5-Trifluoromethoxy-1H-indole-2-carboxylic acid (4-tert-butylcyclohexyl)-[4-(2H-tetrazol-5-ylcarbamoyl)benzyl]amide] | 266 nM |
| CC(C)(C)C1CCC(N(Cc2ccc(C(=O)NCCC(=O)O)cc2)C(=O)Oc2cc(Cl)cc(Cl)c2)CC1 (stereo not shown) [Example 402, 3-(4-{[(4-tert-Butylcyclohexyl)-(3,5-dichlorophenoxycarbonyl)amino]methyl}benzoylamino)propionic acid] | 176 nM |
| O=C(Nc1nn[nH]n1)c1ccc(CN(C(=O)Nc2nc3cc4c(cc3s2)OC(F)(F)C(F)(F)O4)c2ccc(C3CCCCC3)cc2)cc1 [Example 617] | 104 nM |
| CC1CCCCC1N(Cc1ccc(C(=O)NCCC(=O)O)cc1)C(=O)Nc1ccc(Oc2ccccc2)cc1 (stereo not shown) [Example 48, 3-{4-[1-(2-Methylcyclohexyl)-3-(4-phenoxyphenyl)ureidomethyl]benzoylamino}propionic acid] | 1080 nM |
| CCSc1cccc(NC(=O)N(Cc2ccc(C(=O)Nc3nn[nH]n3)cc2)c2ccc(C3CCCCC3)cc2)c1 [Example 289, 4-[1-(4-Cyclohexylphenyl)-3-(3-ethylsulfanylphenyl)ureidomethyl]-N-(2H-tetrazol-5-yl)benzamide] | 27 nM |
| CC(C)N1C(=O)c2ccc(NC(=O)N(Cc3ccc(C(=O)NCCC(=O)O)cc3)C3CCC(C(C)(C)C)CC3)cc2C1=O (stereo not shown) [Example 632, 3-{4-[1-(4-tert-Butylcyclohexyl)-3-(N′-isopropylphthalimid-4-yl)ureidomethyl]benzoylamino}propionic acid] | 91 nM |
| CS(=O)(=O)c1cccc(NC(=O)N(Cc2ccc(C(=O)Nc3nn[nH]n3)cc2)c2ccc(OC(F)(F)F)cc2)c1 [Example 450, 4-[3-(3-Methylsulfonylphenyl)-1-(4-trifluoromethoxyphenyl)ureidomethyl]-N-(2H-tetrazol-5-yl)benzamide] | 1790 nM |
| CCCCc1ccc(N(Cc2ccc(C(=O)NCCC(=O)O)cc2)C(=O)Nc2ccc(OC(F)(F)F)cc2)cc1 [Example 372, 3-{4-[1-(4-Butylphenyl)-3-(4-trifluoromethoxyphenyl)ureidomethyl]benzoylamino}propionic acid] | 90 nM |
| O=C(Nc1nn[nH]n1)c1ccc(CN(CC(c2ccccc2)c2ccccc2)C(=O)Cc2ccc(OC(F)(F)F)cc2)cc1 [Example 531] | 627 nM |
| O=C(Nc1nn[nH]n1)c1ccc(CN(C(=O)Nc2cccc(SC(F)(F)F)c2)c2ccc(C3CCCCC3)cc2)cc1 [Example 278, 4-[1-(4-Cyclohexylphenyl)-3-(3-trifluoromethylsulfanylphenyl)ureidomethyl]-N-(2H-tetrazol-5-yl)benzamide] | 88 nM |
